Test results reported in patent US10590140B2, “Tetrahydropyrimidodiazepine and dihydropyridodiazepine compounds for treating pain and pain related conditions” (ESTEVE PHARMACEUTICALS, S.A., priority 2016, dated 2020).

Molecular target: human α2δ-1 subunit of Cav2.2 calcium channel (Homo sapiens (Human), UniProt P54289)
Test: Binding assay to human α2δ-1 subunit of Cav2.2 calcium channel ([3H]-Gabapentin)
Conditions: binding to α2δ-1, [3H]-Gabapentin; read-out: Ki (nM) α2δ-1
Summary of the method: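 Radioactivity on dried GF/C filters quantified by scintillation after filtration and three cold Tris-HCl (pH 7.4) washes. Incubation ran 60 min at 27° C with [3H]-gabapentin; 10 μM pregabalin gave nonspecific binding.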

human α2δ-1 subunit of Cav2.2 calcium channel, sequence (P54289 25-1103): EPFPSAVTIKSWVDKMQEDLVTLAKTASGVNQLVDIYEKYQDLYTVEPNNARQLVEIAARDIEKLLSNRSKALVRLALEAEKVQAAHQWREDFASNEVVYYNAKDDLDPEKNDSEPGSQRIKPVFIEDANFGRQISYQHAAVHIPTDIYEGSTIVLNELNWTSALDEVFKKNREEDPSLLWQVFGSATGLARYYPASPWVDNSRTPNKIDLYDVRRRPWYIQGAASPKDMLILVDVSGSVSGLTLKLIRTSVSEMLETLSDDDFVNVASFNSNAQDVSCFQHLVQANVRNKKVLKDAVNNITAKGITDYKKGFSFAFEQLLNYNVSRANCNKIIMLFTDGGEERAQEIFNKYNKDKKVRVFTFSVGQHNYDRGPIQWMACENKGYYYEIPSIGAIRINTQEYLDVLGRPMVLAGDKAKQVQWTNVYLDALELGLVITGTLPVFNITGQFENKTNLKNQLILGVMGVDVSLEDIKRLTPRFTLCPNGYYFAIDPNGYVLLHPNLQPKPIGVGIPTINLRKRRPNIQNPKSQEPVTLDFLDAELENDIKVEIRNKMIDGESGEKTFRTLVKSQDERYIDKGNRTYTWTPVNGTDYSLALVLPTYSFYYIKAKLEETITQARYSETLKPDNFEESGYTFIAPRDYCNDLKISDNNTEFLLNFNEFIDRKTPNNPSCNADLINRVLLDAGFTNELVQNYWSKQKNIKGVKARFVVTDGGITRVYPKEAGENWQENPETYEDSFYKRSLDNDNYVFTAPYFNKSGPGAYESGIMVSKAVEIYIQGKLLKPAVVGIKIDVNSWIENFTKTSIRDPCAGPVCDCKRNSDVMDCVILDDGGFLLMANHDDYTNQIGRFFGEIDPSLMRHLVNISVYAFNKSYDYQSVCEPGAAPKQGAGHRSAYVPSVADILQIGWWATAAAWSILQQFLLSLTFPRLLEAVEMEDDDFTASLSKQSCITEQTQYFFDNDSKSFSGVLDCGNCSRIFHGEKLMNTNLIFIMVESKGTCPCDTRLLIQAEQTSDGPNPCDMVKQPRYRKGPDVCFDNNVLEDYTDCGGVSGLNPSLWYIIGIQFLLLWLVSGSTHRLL

Compound | Ki [nM]
CCNc1ncc2c(n1)N(C)CCN(c1cccc(CO[C@H](CCN(C)C(=O)OC(C)(C)C)c3ccccc3)c1)C2 [Example 65, tert-Butyl (R)-(3-((3-(2-(ethylamino)-9-methyl-5,7,8,9-tetrahydro-6H-pyrimido[4,5-e][1,4]diazepin-6-yl)benzyl)oxy)-3-phenylpropyl)(methyl)carbamate] | > 3000
CSc1ncc2c(n1)N(C)CCN(c1cccc(OC(CN(C)C(=O)OC(C)(C)C)c3ccccc3)c1)C2=O (stereo not shown) [Example 4, tert-butyl methyl(2-(3-(9-methyl-2-(methylthio)-5-oxo-5,7,8,9-tetrahydro-6H-pyrimido[4,5-e][1,4]diazepin-6-yl)phenoxy)-2-phenylethyl) carbamate] | > 3000
CCNc1ncc2c(n1)N(C)CCN(c1cccc(O[C@H](CCN(C)C(=O)OC(C)(C)C)c3cccs3)c1)C2=O [Example 81, tert-butyl (R)-(3-(3-(2-(ethylamino)-9-methyl-5-oxo-5,7,8,9-tetrahydro-6H-pyrimido[4,5-e][1,4]diazepin-6-yl)phenoxy)-3-(thiophen-2-yl)propyl)(methyl) carbamate] | > 3000
CSc1ncc2c(n1)N(C)CCN(c1cccc(COC(CN(C)C(=O)OCC[Si](C)(C)C)c3ccccc3)c1)C2=O (stereo not shown) [Example 19, 2-(trimethyl-silyl)ethyl methyl(2-((3-(9-methyl-2-(methylthio)-5-oxo-5,7,8,9-tetrahydro-6H-pyrimido[4,5-e][1,4]diazepin-6-yl)benzyl)oxy)-2-phenylethyl) carbamate] | > 3000
CNCC(OCc1ccccc1CN1CCN(C)c2nc(C)ncc2C1=O)c1ccccc1 (stereo not shown) [Example 424, 2,9-dimethyl-6-(2-((2-(methylamino)-1-phenylethoxy)methyl)benzyl)-6,7,8,9-tetrahydro-5H-pyrimido[4,5-e][1,4]diazepin-5-one] | > 3000
CSc1ncc2c(n1)N(C)CCN(c1cccc(O[C@@H](CCN(C)C(=O)OC(C)(C)C)c3cccs3)c1)C2=O [Example 14, tert-butyl (S)-methyl(3-(3-(9-methyl-2-(methylthio)-5-oxo-5,7,8,9-tetrahydro-6H-pyrimido[4,5-e][1,4]diazepin-6-yl)phenoxy)-3-(thiophen-2-yl)propyl) carbamate] | > 3000
CCNc1ncc2c(n1)N(C)CCN(c1cccc(COC(CN(C)C(=O)OCC[Si](C)(C)C)c3ccccc3)c1)C2=O (stereo not shown) [Example 87, 2-(trimethylsilyl)ethyl (2-((3-(2-(ethylamino)-9-methyl-5-oxo-5,7,8,9-tetrahydro-6H-pyrimido[4,5-e][1,4]diazepin-6-yl)benzyl)oxy)-2-phenylethyl)(methyl) carbamate] | > 3000
CCNc1ncc2c(n1)N(C)CCN(c1cccc(O[Si](C)(C)C(C)(C)C)c1)C2=O [Example 111, 6-(3-((tert-butyldimethylsilyl)oxy)phenyl)-2-(ethylamino)-9-methyl-6,7,8,9-tetrahydro-5H-pyrimido[4,5-e][1,4]diazepin-5-one] | > 3000
CCNc1ncc2c(n1)N(C)CCN(c1cccc(COC3(c4ccccc4)CCN(C)CC3)c1)C2=O [Example 272, 2-(ethylamino)-9-methyl-6-(3-(((1-methyl-4-phenylpiperidin-4-yl)oxy)methyl)phenyl)-6,7,8,9-tetrahydro-5H-pyrimido[4,5-e][1,4]diazepin-5-one] | 500 to 3000
CSc1ncc2c(n1)N(C)CCN(c1cccc(OC(CN(C)C(=O)OC(C)(C)C)C(C)C)c1)C2=O (stereo not shown) [Example 7, tert-butyl methyl(3-methyl-2-(3-(9-methyl-2-(methylthio)-5-oxo-5,7,8,9-tetrahydro-6H-pyrimido[4,5-e][1,4]diazepin-6-yl)phenoxy)butyl) carbamate] | > 3000
CNCC(Oc1cccc(N2CCN(C)c3nc(SC)ncc3C2=O)c1)c1ccccc1 (stereo not shown) [Example 155, 9-methyl-6-(3-(2-(methylamino)-1-phenylethoxy)phenyl)-2-(methylthio)-6,7,8,9-tetrahydro-5H-pyrimido[4,5-e][1,4]diazepin-5-one] | > 3000
CCNc1ncc2c(n1)N(C)CCN(Cc1ccc(OC(CN(C)C(=O)OC(C)(C)C)c3ccccc3)cc1)C2=O (stereo not shown) [Example 136, tert-butyl (2-(4-((2-(ethylamino)-9-methyl-5-oxo-5,7,8,9-tetrahydro-6H-pyrimido[4,5-e][1,4]diazepin-6-yl)methyl)phenoxy)-2-phenylethyl)(methyl) carbamate] | > 3000
CSc1ncc2c(n1)N(C)CCN(c1cccc(Cn3cc(CN(C)C(=O)OC(C)(C)C)nn3)c1)C2=O [Example 44, tert-butyl methyl((1-(3-(9-methyl-2-(methylthio)-5-oxo-5,7,8,9-tetrahydro-6H-pyrimido[4,5-e][1,4]diazepin-6-yl)benzyl)-1H-1,2,3-triazol-4-yl)methyl) carbamate] | > 3000
CN(CC[C@H](Oc1ccc(CN2CCN(C)c3cc(Cl)ncc3C2=O)cc1)c1cccs1)C(=O)OCC[Si](C)(C)C [Example 299, 2-(trimethylsilyl)ethyl (S)-(3-(4-((8-chloro-1-methyl-5-oxo-1,2,3,5-tetrahydro-4H-pyrido[4,3-e][1,4]diazepin-4-yl)methyl)phenoxy)-3-(thiophen-2-yl)propyl)(methyl) carbamate] | > 3000
CSc1ncc2c(n1)N(C)CCN(c1cccc(C#N)c1)C2=O [Example 33, 3-(9-methyl-2-(methylthio)-5-oxo-5,7,8,9-tetrahydro-6H-pyrimido[4,5-e][1,4]diazepin-6-yl)benzonitrile] | > 3000
CCNc1cc2c(cn1)C(=O)N(c1cccc(OC(CCN(C)C(=O)OCC[Si](C)(C)C)c3cccs3)c1)CCN2C (stereo not shown) [Example 58, 2-(trimethyl-silyl)ethyl (3-(3-(8-(ethylamino)-1-methyl-5-oxo-1,2,3,5-tetrahydro-4H-pyrido[4,3-e] [1,4]diazepin-4-yl)phenoxy)-3-(thiophen-2-yl)propyl)(methyl) carbamate] | > 3000
CSc1ncc2c(n1)N(C)CCN(c1cccc(COC(CCN(C)C(=O)OC(C)(C)C)c3ccccc3)c1)C2=O (stereo not shown) [Example 9, tert-butyl methyl(3-((3-(9-methyl-2-(methylthio)-5-oxo-5,7,8,9-tetrahydro-6H-pyrimido[4,5-e][1,4]diazepin-6-yl)benzyl)oxy)-3-phenylpropyl) carbamate] | > 3000
CCNc1ncc2c(n1)N(C)CCN(c1cccc(-n3cc(CNCCOCCO)nn3)c1)C2=O [Example 290, 2-(ethylamino)-6-(3-(4-(((2-(2-hydroxyethoxy)ethyl)amino)methyl)-1H-1,2,3-triazol-1-yl)phenyl)-9-methyl-6,7,8,9-tetrahydro-5H-pyrimido[4,5-e] [1,4]diazepin-5-one] | 100 to 500
CNCC(OCc1ccccc1N1CCN(C)c2nc(SC)ncc2C1=O)c1ccccc1 (stereo not shown) [Example 320, 9-methyl-6-(2-((2-(methylamino)-1-phenylethoxy)methyl)phenyl)-2-(methylthio)-6,7,8,9-tetrahydro-5H-pyrimido[4,5-e][1,4]diazepin-5-one] | > 3000

Continued, values first:

Ki [nM] | Compound
> 3000 | CCNc1ncc2c(n1)N(C)CCN(c1cccc(-n3cc(CNC(=O)OC(C)(C)C)nn3)c1)C2=O [Example 117, tert-butyl ((1-(3-(2-(ethylamino)-9-methyl-5-oxo-5,7,8,9-tetrahydro-6H-pyrimido[4,5-e][1,4]diazepin-6-yl)phenyl)-1H-1,2,3-triazol-4-yl)methyl)carbamate]
100 to 500 | CCNc1ncc2c(n1)N(C)CCN(c1cccc(-c3nnc(CN4CCC(c5ccccc5)(N(C)C)CC4)o3)c1)C2=O [Example 441, 6-(3-(5-((4-(dimethylamino)-4-phenylpiperidin-1-yl)methyl)-1,3,4-oxadiazol-2-yl)phenyl)-2-(ethylamino)-9-methyl-6,7,8,9-tetrahydro-5H-pyrimido[4,5-e][1,4]diazepin-5-one]
> 3000 | CCNc1ncc2c(n1)N(C)CCN(c1cccc(O)c1)C2=O [Example 177, 2-(ethylamino)-6-(3-hydroxyphenyl)-9-methyl-6,7,8,9-tetrahydro-5H-pyrimido[4,5-e][1,4]diazepin-5-one]
500 to 3000 | CCNc1ncc2c(n1)N(C)CCN(c1cccc(Cn3cc(CN(C)Cc4ccccc4)nn3)c1)C2=O [Example 250, 6-(3-((4-((benzyl (methyl)amino)methyl)-1H-1,2,3-triazol-1-yl)methyl)phenyl)-2-(ethylamino)-9-methyl-6,7,8,9-tetrahydro-5H-pyrimido[4,5-e][1,4]diazepin-5-one]
> 3000 | CCNc1ncc2c(n1)N(C)CCN(c1cccc(-n3cc(CN(C)C(=O)OC(C)(C)C)nn3)c1)C2=O [Example 116, tert-butyl ((1-(3-(2-(ethylamino)-9-methyl-5-oxo-5,7,8,9-tetrahydro-6H-pyrimido[4,5-e][1,4]diazepin-6-yl)phenyl)-1H-1,2,3-triazol-4-yl)methyl)(methyl) carbamate]
> 3000 | CCNc1ncc2c(n1)N(C)CCN(c1cccc(O[C@@H](CCN(C)C(=O)OC(C)(C)C)c3ccccc3)c1)C2=O [Example 71, tert-butyl (S)-(3-(3-(2-(ethylamino)-9-methyl-5-oxo-5,7,8,9-tetrahydro-6H-pyrimido[4,5-e][1,4]diazepin-6-yl)phenoxy)-3-phenylpropyl)(methyl) carbamate]
100 to 500 | CCNCc1cn(-c2cccc(N3CCN(C)c4nc(NCC)ncc4C3=O)c2)nn1 [Example 286, 2-(ethylamino)-6-(3-(4-((ethylamino)methyl)-1H-1,2,3-triazol-1-yl)phenyl)-9-methyl-6,7,8,9-tetrahydro-5H-pyrimido[4,5-e] [1,4]diazepin-5-one]
> 3000 | CCNc1ncc2c(n1)N(C)CCN(c1ccccc1OC(CCNC)c1ccccc1)C2=O (stereo not shown) [Example 188, 2-(ethylamino)-9-methyl-6-(2-(3-(methylamino)-1-phenylpropoxy)phenyl)-6,7,8,9-tetrahydro-5H-pyrimido[4,5-e][1,4]diazepin-5-one]
100 to 500 | CCNc1ncc2c(n1)N(C)CCN(c1cccc(CCN(C)Cc3ccccc3)c1)C2=O [Example 269, 6-(3-(2-(benzyl(methyl)amino)ethyl)phenyl)-2-(ethylamino)-9-methyl-6,7,8,9-tetrahydro-5H-pyrimido[4,5-e][1,4]diazepin-5-one]
